Experimental data taken from patent US20240018161A1, “MODULATORS OF CYSTIC FIBROSIS TRANSMEMBRANE CONDUCTANCE REGULATOR” (VERTEX PHARMACEUTICALS INCORPORATED, priority 2020, published 2024).
Where two headings read alike, the source gives them in different places. One block for each compound: values may come before it.

Tests used:
[1] = 13-membered ring
[2] = biological target: T1, CFTR-mediated chloride transport in human intestinal epithelial enteroid cells (Homo sapiens, UniProt P13569); assay: Membrane potential dye, Enteroid Assay B; assay type: cell-based; settings: Enteroid Assay B; for EC50: read-out: Ent. B EC50
Experimental: Base medium (ADF+++) consisted of Advanced DMEM/Ham's F12, 2 mM Glutamax, 10 mM HEPES, […] penicillin/streptomycin.
Bath 1 Buffer consisted of 1 mM MgCl2, 160 mM NaCl, 4.5 mM KCl, 10 mM HEPES, 10 mM Glucose, 2 mM CaCl2.
Chloride Free Buffer consisted of 1 mM Magnesium Gluconate, 2 mM Calcium Gluconate, 4.5 mM Potassium Gluconate, 160 mM Sodium Gluconate, 10 mM HEPES, 10 mM Glucose.
Bath1 Dye Solution consisted of Bath 1 Buffer, 0.04% Pluronic F127, 20 μM Methyl Oxonol, 30 μM CaCCinh-A01, 30 μM Chicago Sky Blue.
Chloride Free Dye Solution consisted of Chloride Free Buffer, 0.04% Pluronic F127, 20 μM Methyl Oxonol, 30 μM CaCCinh-A01, 30 μM Chicago Sky Blue.
3. Enteroid Cell Harvesting and Seeding
Cells were recovered in cell recovery solution, collected by centrifugation at 650 rpm for 5 min at 4° C., resuspended in TryPLE and incubated for 5 min at 37° C. Cells were then collected by centrifugation at 650 rpm for 5 min at 4° C. and resuspended in IEMM containing 10 μM ROCK inhibitor (RI).
5. Membrane Potential Dye, Enteroid Assay B
Briefly, cells were washed 5 times in Bath 1 Buffer. Bath 1 Dye Solution was added and the cells were incubated for 25 min at room temperature. Following dye incubation, cells were washed 3 times in Chloride Free Dye Solution. Chloride transport was initiated by addition of Chloride Free Dye Stimulation Solution and the fluorescence signal was read for 15 min.

[3] = biological target: T1, CFTR-mediated chloride transport in human intestinal epithelial enteroid cells; assay: Membrane potential dye, Enteroid Assay A; assay type: cell-based; settings: for EC50: read-out: Ent. A EC50
Summary of the method: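 Membrane potential dye (20 μM methyl oxonol, with 30 μM CaCCinh-A01 and 30 μM Chicago Sky Blue) loaded 25 min at room temperature into ROCK-inhibitor-seeded human enteroid cells. Chloride-free stimulation buffer triggered transport, followed by 15 min fluorescence. % Activity relative to 3 μM/3 μM/300 nM triple-combination control.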

[4] = enteroid cells incubated with test compound 18-24 hours, acute 10 μM forskolin and 300 nM N-[2,4-bis(1,1-dimethylethyl)-5-hydroxyphenyl]-1,4-dihydro-4-oxoquinoline-3-carboxamide
[5] = percentage of chloride transport of triple combination control (3 μM N-[(6-amino-2-pyridyl)sulfonyl]-6-(3-fluoro-5-isobutoxy-phenyl)-2-[(4S)-2,2,4-trimethylpyrrolidin-1-yl]pyridine-3-carboxamide based)

T1 sequence (P13569 with tags, fused parts or gaps DEL508-508): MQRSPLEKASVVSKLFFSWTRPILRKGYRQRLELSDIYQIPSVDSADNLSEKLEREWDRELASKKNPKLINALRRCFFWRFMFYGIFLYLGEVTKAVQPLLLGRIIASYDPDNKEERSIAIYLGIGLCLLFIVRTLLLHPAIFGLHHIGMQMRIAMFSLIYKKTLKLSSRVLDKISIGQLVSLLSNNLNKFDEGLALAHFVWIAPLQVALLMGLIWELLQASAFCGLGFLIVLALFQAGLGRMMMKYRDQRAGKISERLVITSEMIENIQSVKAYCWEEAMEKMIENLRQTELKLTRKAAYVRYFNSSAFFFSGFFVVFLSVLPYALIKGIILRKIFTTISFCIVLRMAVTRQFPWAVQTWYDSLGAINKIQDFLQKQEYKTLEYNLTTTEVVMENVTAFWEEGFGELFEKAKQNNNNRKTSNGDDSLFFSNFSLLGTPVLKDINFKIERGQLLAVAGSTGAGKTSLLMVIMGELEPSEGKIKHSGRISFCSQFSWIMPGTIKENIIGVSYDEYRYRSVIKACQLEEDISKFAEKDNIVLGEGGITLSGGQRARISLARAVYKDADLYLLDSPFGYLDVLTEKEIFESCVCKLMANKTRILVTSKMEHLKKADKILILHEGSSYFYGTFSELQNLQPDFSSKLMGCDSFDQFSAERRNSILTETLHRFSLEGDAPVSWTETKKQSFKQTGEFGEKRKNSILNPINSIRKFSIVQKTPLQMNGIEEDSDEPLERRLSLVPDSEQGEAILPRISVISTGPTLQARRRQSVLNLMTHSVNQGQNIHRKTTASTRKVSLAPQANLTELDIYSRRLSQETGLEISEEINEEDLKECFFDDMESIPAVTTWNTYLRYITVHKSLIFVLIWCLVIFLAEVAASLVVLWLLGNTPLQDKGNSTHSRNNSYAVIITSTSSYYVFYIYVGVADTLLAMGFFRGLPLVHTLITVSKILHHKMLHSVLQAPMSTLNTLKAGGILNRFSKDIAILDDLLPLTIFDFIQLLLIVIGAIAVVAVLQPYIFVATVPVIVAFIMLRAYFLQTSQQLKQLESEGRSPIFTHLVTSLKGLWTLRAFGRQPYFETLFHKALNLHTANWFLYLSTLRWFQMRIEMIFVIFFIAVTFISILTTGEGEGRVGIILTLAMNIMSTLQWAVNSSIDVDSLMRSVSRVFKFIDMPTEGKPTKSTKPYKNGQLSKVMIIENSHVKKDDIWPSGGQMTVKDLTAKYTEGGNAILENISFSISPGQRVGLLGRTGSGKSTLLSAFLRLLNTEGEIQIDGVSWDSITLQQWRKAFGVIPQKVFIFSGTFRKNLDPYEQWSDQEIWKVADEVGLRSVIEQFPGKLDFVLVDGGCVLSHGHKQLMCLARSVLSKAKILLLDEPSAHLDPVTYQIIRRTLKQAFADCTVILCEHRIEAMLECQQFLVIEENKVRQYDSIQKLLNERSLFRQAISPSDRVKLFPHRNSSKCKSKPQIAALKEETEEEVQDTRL

Compound: Cc1cccc(C)c1-c1cc2nc(n1)NS(=N)(=O)c1cccc(c1)C(=O)N1CCN(C(=O)OC(C)(C)C)CC(C1)O2 (centres unmarked)
- ring closure, isolated yield ([1]; from Cc1cccc(C)c1-c1cc(Cl)nc(NS(=N)(=O)c2cccc(C(=O)N3CCN(C(=O)OC(C)(C)C)CC(O)C3)c2)n1, snar bond, NaH, DMF, 15.3 mM, 1.5 h): 23%

Compound: Cc1cccc(C)c1-c1cc2nc(n1)NS(=O)(=O)c1cccc(c1)C(=O)N1C(c3ncc(OC(C)C)cn3)CCCC(O2)[C@H]1CC(C)C (some centres unmarked)
- ring closure, isolated yield ([1]; from Cc1cccc(C)c1-c1cc(OC2CCCC(c3ncc(OC(C)C)cn3)N[C@@H]2CC(C)C)nc(NS(=O)(=O)c2cccc(C(=O)O)c2)n1, amide bond, CDMT/NMM, DMF, 7.3 mM, 60.0 h): 14%

Compound: Cc1cccc(C)c1-c1cc2nc(n1)NS(=O)(=O)c1cccc(c1)C(=O)N1CC(C)(C)CC(O2)C1CC(C)C (centres unmarked)
- ring closure, isolated yield ([1]; from Cc1cccc(C)c1-c1cc(Cl)nc(NS(=O)(=O)c2cccc(C(=O)N3CC(C)(C)CC(O)C3CC(C)C)c2)n1, snar bond, NaH, DMF, 16.4 mM, 25.0 °C, 16.0 h): 23%
- ring closure, isolated yield ([1]; from Cc1cccc(C)c1-c1cc(Cl)nc(NS(=O)(=O)c2cccc(C(=O)N3CC(C)(C)CC(O)C3CC(C)C)c2)n1, snar bond, NaH, DMF, 17.8 mM, 25.0 °C, 8.0 h): 72%

Compound: Cc1cccc(C)c1-c1cc2nc(n1)NS(=O)(=O)c1cccc(c1)C(=O)N1CCN(C(=O)OC(C)(C)C)C[C@H](C1)O2
- ring closure, isolated yield ([1]; from Cc1cccc(C)c1-c1cc(Cl)nc(NS(=O)(=O)c2cccc(C(=O)N3CCN(C(=O)OC(C)(C)C)C[C@@H](O)C3)c2)n1, snar bond, NaH, DMF, 33.1 mM, 0.0 °C, 3.5 h): 64%

Compound: Cc1cccc(C)c1-c1cc2nc(n1)NS(=O)(=O)c1cccc(c1)C(=O)N1CCN(C(=O)OC(C)(C)C)C[C@H]1CO2
- ring closure, isolated yield ([1]; from Cc1cccc(C)c1-c1cc(Cl)nc(NS(=O)(=O)c2cccc(C(=O)N3CCN(C(=O)OC(C)(C)C)C[C@H]3CO)c2)n1, snar bond, NaH, NMP, 4.4 mM, 70.0 °C, 2.0 h, 2 steps): 19%

Compound: Cc1cccc(C)c1-c1cc2nc(n1)NS(=O)(=O)c1cccc(c1)C(=O)N1CCN(C(=O)OCc3ccccc3)C[C@H](C1)O2
- ring closure, isolated yield ([1]; from Cc1cccc(C)c1-c1cc(Cl)nc(NS(=O)(=O)c2cccc(C(=O)N3CCN(C(=O)OCc4ccccc4)C[C@@H](O)C3)c2)n1, snar bond, NaH, DMF, 30.4 mM, 5.0 °C, 2.0 h): 44%

Compound: Cc1cccc(C)c1-c1cc2nc(n1)NS(=O)(=O)c1cccc(c1)C(=O)N1Cc3cc(C(C)(C)C)ccc3C(C1)O2 (centres unmarked)
- ring closure, isolated yield ([1]; from Cc1cccc(C)c1-c1cc(OC2CNCc3cc(C(C)(C)C)ccc32)nc(NS(=O)(=O)c2cccc(C(=O)O)c2)n1, amide bond, HATU/NaOtBu, THF/DMF, 25.0 °C, 0.25 h, 3 steps): 14%

Continued, in another order:

- EC50 [2]: < 1000 nM
Compound: Cc1cccc(C)c1-c1cc2nc(n1)NS(=O)(=O)c1cccc(c1)C(=O)N1CCc3cc(C(C)(C)C)ccc3C(O2)[C@H]1CC(C)C (single isomer, unassigned) [Compound 237]
- ring closure, yield after HPLC (from Cc1cccc(C)c1-c1cc(OC2c3ccc(C(C)(C)C)cc3CCN[C@@H]2CC(C)C)nc(NS(=O)(=O)c2cccc(C(=O)O)c2)n1, amide bond, 13-membered ring, NaOtBu, HATU, THF/DMF, 19.2 mM, 0.0 °C, 0.08 h, 2 steps): 18%

- Ent. B Max Activity (%) [2]: ++ (++ is 30-60%)
- EC50 [2]: < 1000 nM
Compound: Cc1cccc(C)c1-c1cc2nc(n1)NS(=O)(=O)c1cccc(c1)C(=O)N1C[C@@H](CCCC1CC(C)C)O2 (stereo partly drawn) [Compound 181, (16R)-12-(2,6-Dimethylphenyl)-20-(2-methylpropyl)-15-oxa-8λ^6-thia-1,9,11,22-tetraazatetracyclo[14.4.1.13,7.110,14]tricosa-3(23),4,6,10(22),11,13-hexaene-2,8,8-trione]
- ring closure, yield after HPLC (from Cc1cccc(C)c1-c1cc(Cl)nc(NS(=O)(=O)c2cccc(C(=O)N3C[C@H](O)CCCC3CC(C)C)c2)n1, snar bond, 13-membered ring, NaOtBu, THF, 17.5 mM, 25.0 °C, 24.0 h): 4%

- EC50 ([3]; Enteroid Assay A): < 1000 nM
Compound: Cc1ccccc1-c1cc2nc(n1)NS(=O)(=O)c1cccc(c1)C(=O)N1Cc3ccccc3[C@@H](O2)[C@H]1CC(C)C [Compound 192, (16R,24R)-12-(2-Methylphenyl)-24-(2-methylpropyl)-15-oxa-8λ^6-thia-1,9,11,25-tetraazapentacyclo[14.7.1.13,7.110,14.017,22]hexacosa-3(26),4,6,10,12,14(25),17,19,21-nonaene-2,8,8-trione]
- ring closure, yield after HPLC (from Cc1ccccc1-c1cc(O[C@@H]2c3ccccc3CN[C@@H]2CC(C)C)nc(NS(=O)(=O)c2cccc(C(=O)O)c2)n1, amide bond, 13-membered ring, HATU/DIEA, DMF, 424.0 mM, 0.5 h, 3 steps): 9%

- EC50 [3, 4]: 3000 to 30000 nM
Compound: Cc1cccc(C)c1-c1cc2nc(n1)NS(=O)(=O)c1cccc(c1)C(=O)N1Cc3cnccc3C(C1)O2 (centres unmarked) [Compound 194, 12-(2,6-Dimethylphenyl)-15-oxa-8λ^6-thia-1,9,11,20,25-pentaazapentacyclo[14.7.1.13,7.110,14.017,22]hexacosa-3(26),4,6,10,12,14(25),17,19,21-nonaene-2,8,8-trione]
- Ent. A Max Activity (%) [3, 5]: ++ (++ is 30-60%)
- ring closure, yield after HPLC (from Cc1cccc(C)c1-c1cc(OC2CNCc3cnccc32)nc(NS(=O)(=O)c2cccc(C(=O)O)c2)n1, amide bond, 13-membered ring, HATU/DIEA, DMF, 19.0 mM, 0.5 h, 3 steps): 1%

- EC50 [3, 4]: 1000 to 3000 nM
Compound: Cc1cccc(C)c1-c1cc2nc(n1)NS(=O)(=O)c1cccc(c1)C(=O)N1Cc3ncccc3C(C1)O2 (centres unmarked) [Compound 198, 12-(2,6-Dimethylphenyl)-15-oxa-8λ^6-thia-1,9,11,21,25-pentaazapentacyclo[14.7.1.13,7.110,14.017,22]hexacosa-3,5,7(26),10(25),11,13,17,19,21-nonaene-2,8,8-trione]
- Ent. A Max Activity (%) [3, 5]: ++ (++ is 30-60%)
- ring closure, yield after HPLC (from Cc1cccc(C)c1-c1cc(OC2CNCc3ncccc32)nc(NS(=O)(=O)c2cccc(C(=O)O)c2)n1, amide bond, 13-membered ring, HATU/DIEA, NMP, 132.0 mM, 25.0 °C, 1.0 h): 44%

- EC50 [3, 4]: 3000 to 30000 nM
Compound: Cc1cccc(C)c1-c1cc2nc(n1)NS(=O)(=O)c1cccc(c1)C(=O)N1CC[C@@H](C1)O2 [Compound 213, (3S)-17-(2,6-Dimethylphenyl)-2-oxa-13λ^6-thia-6,14,16,19-tetraazatetracyclo[13.3.1.13,6.18,12]henicosa-1(19),8(20),9,11,15,17-hexaene-7,13,13-trione]
- Ent. A Max Activity (%) [3, 5]: +++ (+++ is >60%)
- ring closure, yield after HPLC (from Cc1cccc(C)c1-c1cc(O[C@H]2CCNC2)nc(NS(=O)(=O)c2cccc(C(=O)O)c2)n1, amide bond, 13-membered ring, HATU/TEA, DMF, 53.7 mM, 25.0 °C, 1.0 h): 20%

- EC50 [3, 4]: < 1000 nM
Compound: Cc1cccc(C)c1-c1cc2nc(n1)NS(=O)(=O)c1cccc(c1)C(=O)N1CCC(O2)c2ccccc2C1 (centres unmarked) [Compound 227, 12-(2,6-dimethylphenyl)-15-oxa-8λ^6-thia-1,9,11,26-tetraazapentacyclo[14.7.2.13,7.110,14.017,22]heptacosa-3(27),4,6,10(26),11,13,17,19,21-nonaene-2,8,8-trione]
- Ent. A Max Activity (%) [3, 5]: ++ (++ is 30-60%)
- ring closure, yield after HPLC (from Cc1cccc(C)c1-c1cc(OC2CCNCc3ccccc32)nc(NS(=O)(=O)c2cccc(C(=O)O)c2)n1, amide bond, 14-membered ring, HATU/DIEA, DMF, 13.1 mM, 25.0 °C, 0.083 h, 3 steps): 12%

- Ent. A Max Activity (%) ([3]; Enteroid Assay A): ++ (++ is 30-60%)
- EC50 ([3]; Enteroid Assay A): 1000 to 3000 nM
Compound: Cc1cccc(C)c1-c1cc2nc(n1)NS(=O)(=O)c1cccc(c1)C(=O)N1CC(CCc3ccccc31)O2 (centres unmarked) [Compound 228, 5-(2,6-Dimethylphenyl)-2-oxa-9λ^6-thia-6,8,16,27-tetraazapentacyclo[14.8.1.13,7.110,14.017,22]heptacosa-3(27),4,6,10,12,14(26),17(22),18,20-nonaene-9,9,15-trione]
- ring closure, yield after HPLC (from Cc1cccc(C)c1-c1cc(Cl)nc(NS(=O)(=O)c2cccc(C(=O)N3CC(O)CCc4ccccc43)c2)n1, snar bond, 13-membered ring, NaH, DMF, 21.9 mM, 25.0 °C, 48.0 h): 15%

- EC50 [2]: < 1000 nM
Compound: Cc1cccc(C)c1-c1cc2nc(n1)NS(=O)(=O)c1cccc(c1)C(=O)N1Cc3ccccc3C(CO2)C1 (centres unmarked) [Compound 238, 12-(2,6-Dimethylphenyl)-15-oxa-8λ^6-thia-1,9,11,26-tetraazapentacyclo[15.7.1.13,7.110,14.018,23]heptacosa-3,5,7(27),10(26),11,13,18,20,22-nonaene-2,8,8-trione]
- ring closure, yield after HPLC (from Cc1cccc(C)c1-c1cc(OCC2CNCc3ccccc32)nc(NS(=O)(=O)c2cccc(C(=O)O)c2)n1, amide bond, 14-membered ring, HATU/DIEA, DMF/THF, 136.0 mM, 16.0 h, 2 steps): 5%
